Patent US9340590B2 (priority 2011, dated 2016)
Positions of bridges follow the written chain, without caps; N, C: chain ends. Non-standard residues stand in square brackets, D forms with d. Residues, ends and D or L forms follow the SMILES beside them. Phe(4-I) = N[C@@H](Cc1ccc(I)cc1)C(=O)O; Cha = N[C@@H](CC1CCCCC1)C(=O)O; Phg = N[C@H](C(=O)O)c1ccccc1

What was measured:
Test in all cases: cell-based
[1] = molecular target: hNav1.7 (Homo sapiens, UniProt Q15858); type: cell-based; settings: Table 25; IonWorks Quattro, use; […]; read-out: IWQ Use Nav1.7
Chain of hNav1.7 (Q15858 whole entry, looked up): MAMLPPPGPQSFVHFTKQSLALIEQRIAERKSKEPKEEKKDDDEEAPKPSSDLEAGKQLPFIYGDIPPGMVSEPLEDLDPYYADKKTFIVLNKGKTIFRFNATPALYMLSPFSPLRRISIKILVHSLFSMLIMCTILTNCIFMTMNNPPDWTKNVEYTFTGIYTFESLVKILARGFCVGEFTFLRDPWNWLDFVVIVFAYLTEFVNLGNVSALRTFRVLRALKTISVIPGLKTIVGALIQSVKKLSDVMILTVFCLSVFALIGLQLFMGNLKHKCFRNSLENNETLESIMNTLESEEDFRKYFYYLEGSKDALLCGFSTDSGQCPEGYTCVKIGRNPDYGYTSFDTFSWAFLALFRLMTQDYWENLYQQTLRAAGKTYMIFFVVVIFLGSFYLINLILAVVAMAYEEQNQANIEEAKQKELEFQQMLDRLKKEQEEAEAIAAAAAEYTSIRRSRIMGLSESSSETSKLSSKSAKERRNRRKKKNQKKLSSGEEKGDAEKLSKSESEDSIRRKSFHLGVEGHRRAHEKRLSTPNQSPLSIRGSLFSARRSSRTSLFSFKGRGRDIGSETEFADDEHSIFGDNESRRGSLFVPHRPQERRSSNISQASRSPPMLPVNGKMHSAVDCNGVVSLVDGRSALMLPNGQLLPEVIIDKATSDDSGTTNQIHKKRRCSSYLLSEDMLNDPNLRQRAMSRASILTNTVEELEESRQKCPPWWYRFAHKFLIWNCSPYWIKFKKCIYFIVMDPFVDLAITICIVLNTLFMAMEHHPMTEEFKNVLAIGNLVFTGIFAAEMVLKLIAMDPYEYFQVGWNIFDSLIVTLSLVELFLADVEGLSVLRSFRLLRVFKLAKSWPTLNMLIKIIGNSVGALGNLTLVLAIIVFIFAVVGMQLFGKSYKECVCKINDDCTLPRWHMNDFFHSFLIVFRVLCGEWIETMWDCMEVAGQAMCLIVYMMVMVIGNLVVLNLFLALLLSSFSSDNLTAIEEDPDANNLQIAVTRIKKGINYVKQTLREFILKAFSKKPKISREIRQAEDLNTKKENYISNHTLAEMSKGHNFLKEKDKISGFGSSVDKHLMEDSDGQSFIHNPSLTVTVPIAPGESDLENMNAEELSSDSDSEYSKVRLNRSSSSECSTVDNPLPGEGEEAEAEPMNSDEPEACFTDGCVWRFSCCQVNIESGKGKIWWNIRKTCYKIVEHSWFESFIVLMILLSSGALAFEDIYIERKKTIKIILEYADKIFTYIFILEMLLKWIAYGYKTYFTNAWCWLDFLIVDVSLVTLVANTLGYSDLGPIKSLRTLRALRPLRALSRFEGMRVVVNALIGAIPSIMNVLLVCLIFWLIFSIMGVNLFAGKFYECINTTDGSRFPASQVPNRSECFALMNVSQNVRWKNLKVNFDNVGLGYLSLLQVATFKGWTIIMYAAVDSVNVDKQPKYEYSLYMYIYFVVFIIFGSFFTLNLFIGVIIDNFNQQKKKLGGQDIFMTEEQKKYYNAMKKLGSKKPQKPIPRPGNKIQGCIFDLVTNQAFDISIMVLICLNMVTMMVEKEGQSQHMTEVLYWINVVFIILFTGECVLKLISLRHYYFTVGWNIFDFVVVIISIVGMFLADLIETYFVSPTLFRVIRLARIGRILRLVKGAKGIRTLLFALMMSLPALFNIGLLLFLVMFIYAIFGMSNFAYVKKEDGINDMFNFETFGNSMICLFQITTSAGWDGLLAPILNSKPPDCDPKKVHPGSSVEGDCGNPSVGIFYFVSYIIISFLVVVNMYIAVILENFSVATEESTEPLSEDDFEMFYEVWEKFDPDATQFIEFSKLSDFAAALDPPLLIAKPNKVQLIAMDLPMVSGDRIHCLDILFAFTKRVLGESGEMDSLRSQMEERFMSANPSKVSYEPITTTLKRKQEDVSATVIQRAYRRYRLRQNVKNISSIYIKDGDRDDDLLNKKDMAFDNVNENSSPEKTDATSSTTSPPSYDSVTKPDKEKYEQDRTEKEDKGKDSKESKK

[2] = molecular target: hNav1.5 (Homo sapiens, UniProt Q14524); settings: Table 25; IonWorks Quattro, use; […]; read-out: IWQ Use Nav1.5
Chain of hNav1.5 (Q14524 whole entry, looked up): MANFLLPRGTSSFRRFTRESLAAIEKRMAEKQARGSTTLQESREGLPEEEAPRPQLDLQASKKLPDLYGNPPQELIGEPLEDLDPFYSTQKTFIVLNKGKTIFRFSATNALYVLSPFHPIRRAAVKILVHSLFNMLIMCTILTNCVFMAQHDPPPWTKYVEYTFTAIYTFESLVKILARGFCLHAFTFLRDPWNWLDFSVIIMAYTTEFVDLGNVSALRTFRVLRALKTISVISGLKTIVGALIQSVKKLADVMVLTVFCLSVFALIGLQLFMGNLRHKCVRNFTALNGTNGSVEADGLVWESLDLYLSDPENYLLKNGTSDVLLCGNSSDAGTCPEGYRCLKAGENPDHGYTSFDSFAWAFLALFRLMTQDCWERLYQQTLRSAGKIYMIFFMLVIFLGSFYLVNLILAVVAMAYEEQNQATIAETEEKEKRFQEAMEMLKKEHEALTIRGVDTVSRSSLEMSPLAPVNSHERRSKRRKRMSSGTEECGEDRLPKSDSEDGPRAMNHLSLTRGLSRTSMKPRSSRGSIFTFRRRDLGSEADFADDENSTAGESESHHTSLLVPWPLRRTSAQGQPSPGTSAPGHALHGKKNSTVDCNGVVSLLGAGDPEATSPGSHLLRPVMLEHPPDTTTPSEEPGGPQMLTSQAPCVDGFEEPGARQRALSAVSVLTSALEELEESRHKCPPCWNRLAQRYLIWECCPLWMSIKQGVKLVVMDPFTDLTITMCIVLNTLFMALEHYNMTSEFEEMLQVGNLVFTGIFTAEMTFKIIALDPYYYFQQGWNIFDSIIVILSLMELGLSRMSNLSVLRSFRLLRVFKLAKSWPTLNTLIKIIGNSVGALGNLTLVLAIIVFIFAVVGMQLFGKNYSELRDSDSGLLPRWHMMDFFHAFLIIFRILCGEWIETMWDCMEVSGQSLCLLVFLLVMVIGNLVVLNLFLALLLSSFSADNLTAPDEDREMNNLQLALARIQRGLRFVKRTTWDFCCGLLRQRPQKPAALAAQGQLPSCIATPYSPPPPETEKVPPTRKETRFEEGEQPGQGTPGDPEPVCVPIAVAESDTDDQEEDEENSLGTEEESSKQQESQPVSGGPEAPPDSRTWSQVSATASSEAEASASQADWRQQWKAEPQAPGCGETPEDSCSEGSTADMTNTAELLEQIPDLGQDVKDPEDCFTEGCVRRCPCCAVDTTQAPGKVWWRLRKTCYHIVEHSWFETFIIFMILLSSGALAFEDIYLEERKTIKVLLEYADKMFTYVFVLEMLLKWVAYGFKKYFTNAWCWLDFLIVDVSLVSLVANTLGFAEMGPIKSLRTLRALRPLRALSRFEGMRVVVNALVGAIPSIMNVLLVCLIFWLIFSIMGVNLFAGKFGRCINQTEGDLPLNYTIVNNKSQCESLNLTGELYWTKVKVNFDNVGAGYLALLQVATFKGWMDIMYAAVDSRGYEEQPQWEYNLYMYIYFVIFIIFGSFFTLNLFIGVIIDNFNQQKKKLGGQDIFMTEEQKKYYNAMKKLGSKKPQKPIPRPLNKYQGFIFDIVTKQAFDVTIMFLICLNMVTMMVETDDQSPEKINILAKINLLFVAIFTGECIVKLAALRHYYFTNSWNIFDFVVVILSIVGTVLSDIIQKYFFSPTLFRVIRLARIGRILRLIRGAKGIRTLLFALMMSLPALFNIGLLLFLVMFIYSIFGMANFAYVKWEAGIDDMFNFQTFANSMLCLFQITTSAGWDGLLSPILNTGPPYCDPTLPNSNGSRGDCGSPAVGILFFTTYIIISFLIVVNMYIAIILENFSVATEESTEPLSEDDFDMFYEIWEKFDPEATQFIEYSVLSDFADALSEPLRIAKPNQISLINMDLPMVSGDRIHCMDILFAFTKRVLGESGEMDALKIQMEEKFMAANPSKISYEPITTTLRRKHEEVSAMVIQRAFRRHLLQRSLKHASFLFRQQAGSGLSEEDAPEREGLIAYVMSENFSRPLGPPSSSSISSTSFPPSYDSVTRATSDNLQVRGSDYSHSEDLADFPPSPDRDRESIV

[3] = molecular target: hNav1.3 (Homo sapiens, UniProt Q9NY46); settings: Table 25; IonWorks Quattro, use; […]; read-out: IWQ Use Nav1.3

| Structure (SMILES) | IC50 [1] [µM] | IC50 [2] [µM] | IC50 [3] [µM] |
| --- | --- | --- | --- |
| CC[C@H](C)[C@@H]1NC(=O)[C@@H]2CSSC[C@@H]3NC(=O)[C@H](C(C)C)NC(=O)[C@H](CC(C)C)NC(=O)[C@H](CC(N)=O)NC(=O)[C@@H]4CCCN4C(=O)[C@H](CCCNC(=N)N)NC(=O)[C@H](CSSC[C@H](NC(=O)[C@@H](N)CC(=O)O)C(=O)N[C@@H](CC(C)C)C(=O)NCC(=O)N[C@@H](Cc4ccccc4)C(=O)N[C@@H](CCSC)C(=O)N[C@@H](CCCNC(=N)N)C(=O)N[C@@H](CCCCN)C(=O)N2)NC(=O)[C@H](CSSC[C@@H](C(=O)N[C@@H](CCCCN)C(=O)N[C@H](C(=O)N[C@H](C(=O)N[C@@H](Cc2ccccc2)C(N)=O)C(C)C)c2ccccc2)NC(=O)[C@H](Cc2c[nH]c4ccccc24)NC(=O)[C@H](CCCCN)NC(=O)[C@H](Cc2c[nH]cn2)NC(=O)[C@H]([C@@H](C)O)NC(=O)[C@H](CCCNC(=N)N)NC(=O)[C@H](CO)NC3=O)NC(=O)[C@H](CCCCN)NC(=O)[C@H](CC(=O)O)NC(=O)[C@H](CC(N)=O)NC(=O)[C@H](CC(=O)O)NC(=O)[C@@H]2CCCN2C1=O [compound 374] (H-DCLGFMRKCIPDNDKCCRPNLVCSRTHKWCK[Phg]VF-NH2; disulfide 2-17, 9-23, 16-30) | 0.14 | 7.06 | 0.1 |
| CC[C@H](C)[C@@H]1NC(=O)[C@@H]2CSSC[C@@H]3NC(=O)[C@H](C(C)C)NC(=O)[C@H](CC(C)C)NC(=O)[C@H](CC(N)=O)NC(=O)[C@@H]4CCCN4C(=O)[C@H](CCCNC(=N)N)NC(=O)[C@H](CSSC[C@H](NC(=O)[C@@H](N)CC(=O)O)C(=O)N[C@@H](CC(C)C)C(=O)NCC(=O)N[C@@H](Cc4ccccc4)C(=O)N[C@@H](CCSC)C(=O)N[C@@H](CCCNC(=N)N)C(=O)N[C@@H](CCCCN)C(=O)N2)NC(=O)[C@H](CSSC[C@@H](C(=O)N[C@@H](CCCCN)C(=O)N[C@@H](CC2CCCCC2)C(=O)N[C@H](C(=O)N[C@@H](Cc2ccccc2)C(N)=O)C(C)C)NC(=O)[C@H](Cc2c[nH]c4ccccc24)NC(=O)[C@H](CCCCN)NC(=O)[C@H](Cc2c[nH]cn2)NC(=O)[C@H]([C@@H](C)O)NC(=O)[C@H](CCCNC(=N)N)NC(=O)[C@H](CO)NC3=O)NC(=O)[C@H](CCCCN)NC(=O)[C@H](CC(=O)O)NC(=O)[C@H](CC(N)=O)NC(=O)[C@H](CC(=O)O)NC(=O)[C@@H]2CCCN2C1=O [compound 375] (H-DCLGFMRKCIPDNDKCCRPNLVCSRTHKWCK[Cha]VF-NH2; disulfide 2-17, 9-23, 16-30) | 0.05 | 8.88 | 0.02 |
| CC[C@H](C)[C@@H]1NC(=O)[C@@H]2CSSC[C@@H]3NC(=O)[C@H](C(C)C)NC(=O)[C@H](CC(C)C)NC(=O)[C@H](CC(N)=O)NC(=O)[C@@H]4CCCN4C(=O)[C@H](CCCNC(=N)N)NC(=O)[C@H](CSSC[C@H](NC(=O)[C@@H](N)CC(=O)O)C(=O)N[C@@H](CC(C)C)C(=O)NCC(=O)N[C@@H](Cc4ccccc4)C(=O)N[C@@H](CCSC)C(=O)N[C@@H](CCCNC(=N)N)C(=O)N[C@@H](CCCCN)C(=O)N2)NC(=O)[C@H](CSSC[C@@H](C(=O)N[C@@H](CCCCN)C(=O)N[C@@H](Cc2ccccc2)C(=O)N[C@H](C(=O)N[C@@H](Cc2ccccc2)C(N)=O)C(C)C)NC(=O)[C@H](Cc2c[nH]c4ccccc24)NC(=O)[C@H](CCCCN)NC(=O)[C@H](Cc2c[nH]cn2)NC(=O)[C@H]([C@@H](C)O)NC(=O)[C@H](CCCNC(=N)N)NC(=O)[C@H](CO)NC3=O)NC(=O)[C@H](CCCCN)NC(=O)[C@H](CC(=O)O)NC(=O)[C@H](CC(N)=O)NC(=O)[C@H](CC(=O)O)NC(=O)[C@@H]2CCCN2C1=O [compound 377] (H-DCLGFMRKCIPDNDKCCRPNLVCSRTHKWCKFVF-NH2; disulfide 2-17, 9-23, 16-30) | 0.05 | 6.84 | 0.05 |
| CC[C@H](C)[C@@H]1NC(=O)[C@@H]2CSSC[C@@H]3NC(=O)[C@H](C(C)C)NC(=O)[C@H](CC(C)C)NC(=O)[C@H](CC(N)=O)NC(=O)[C@@H]4CCCN4C(=O)[C@H](CCCNC(=N)N)NC(=O)[C@H](CSSC[C@H](NC(=O)[C@@H](N)CC(=O)O)C(=O)N[C@@H](CC(C)C)C(=O)NCC(=O)N[C@@H](Cc4ccccc4)C(=O)N[C@@H](CCSC)C(=O)N[C@@H](CCCNC(=N)N)C(=O)N[C@@H](CCCCN)C(=O)N2)NC(=O)[C@H](CSSC[C@@H](C(=O)N[C@@H](CCCCN)C(=O)NCC(=O)N[C@H](C(=O)N[C@@H](Cc2ccccc2)C(N)=O)C(C)C)NC(=O)[C@H](Cc2c[nH]c4ccccc24)NC(=O)[C@H](CCCCN)NC(=O)[C@H](Cc2c[nH]cn2)NC(=O)[C@H]([C@@H](C)O)NC(=O)[C@H](CCCNC(=N)N)NC(=O)[C@H](CO)NC3=O)NC(=O)[C@H](CCCCN)NC(=O)[C@H](CC(=O)O)NC(=O)[C@H](CC(N)=O)NC(=O)[C@H](CC(=O)O)NC(=O)[C@@H]2CCCN2C1=O [compound 378] (H-DCLGFMRKCIPDNDKCCRPNLVCSRTHKWCKGVF-NH2; disulfide 2-17, 9-23, 16-30) | 0.71 | 11.2 | 0.62 |
| CC[C@H](C)[C@@H]1NC(=O)[C@@H]2CSSC[C@@H]3NC(=O)[C@H](C(C)C)NC(=O)[C@H](CC(C)C)NC(=O)[C@H](CC(N)=O)NC(=O)[C@@H]4CCCN4C(=O)[C@H](CCCNC(=N)N)NC(=O)[C@H](CSSC[C@H](NC(=O)[C@@H](N)CC(=O)O)C(=O)N[C@@H](CC(C)C)C(=O)NCC(=O)N[C@@H](Cc4ccccc4)C(=O)N[C@@H](CCSC)C(=O)N[C@@H](CCCNC(=N)N)C(=O)N[C@@H](CCCCN)C(=O)N2)NC(=O)[C@H](CSSC[C@@H](C(=O)N[C@@H](CCCCN)C(=O)N[C@@H](CC(N)=O)C(=O)N[C@H](C(=O)N[C@@H](Cc2ccccc2)C(N)=O)C(C)C)NC(=O)[C@H](Cc2c[nH]c4ccccc24)NC(=O)[C@H](CCCCN)NC(=O)[C@H](Cc2c[nH]cn2)NC(=O)[C@H]([C@@H](C)O)NC(=O)[C@H](CCCNC(=N)N)NC(=O)[C@H](CO)NC3=O)NC(=O)[C@H](CCCCN)NC(=O)[C@H](CC(=O)O)NC(=O)[C@H](CC(N)=O)NC(=O)[C@H](CC(=O)O)NC(=O)[C@@H]2CCCN2C1=O [compound 379] (H-DCLGFMRKCIPDNDKCCRPNLVCSRTHKWCKNVF-NH2; disulfide 2-17, 9-23, 16-30) | 4.86 | 10.6 | 6.85 |
| CC[C@H](C)[C@@H]1NC(=O)[C@@H]2CSSC[C@@H]3NC(=O)[C@H](C(C)C)NC(=O)[C@H](CC(C)C)NC(=O)[C@H](CC(N)=O)NC(=O)[C@@H]4CCCN4C(=O)[C@H](CCCNC(=N)N)NC(=O)[C@H](CSSC[C@H](NC(=O)[C@@H](N)CC(=O)O)C(=O)N[C@@H](CC(C)C)C(=O)NCC(=O)N[C@@H](Cc4ccccc4)C(=O)N[C@@H](CCSC)C(=O)N[C@@H](CCCNC(=N)N)C(=O)N[C@@H](CCCCN)C(=O)N2)NC(=O)[C@H](CSSC[C@@H](C(=O)N[C@@H](CCCCN)C(=O)N[C@@H](Cc2c[nH]cn2)C(=O)N[C@H](C(=O)N[C@@H](Cc2ccccc2)C(N)=O)C(C)C)NC(=O)[C@H](Cc2c[nH]c4ccccc24)NC(=O)[C@H](CCCCN)NC(=O)[C@H](Cc2c[nH]cn2)NC(=O)[C@H]([C@@H](C)O)NC(=O)[C@H](CCCNC(=N)N)NC(=O)[C@H](CO)NC3=O)NC(=O)[C@H](CCCCN)NC(=O)[C@H](CC(=O)O)NC(=O)[C@H](CC(N)=O)NC(=O)[C@H](CC(=O)O)NC(=O)[C@@H]2CCCN2C1=O [compound 380] (H-DCLGFMRKCIPDNDKCCRPNLVCSRTHKWCKHVF-NH2; disulfide 2-17, 9-23, 16-30) | 0.6 | 10.2 | 0.75 |
| CC[C@H](C)[C@@H]1NC(=O)[C@@H]2CSSC[C@@H]3NC(=O)[C@H](C(C)C)NC(=O)[C@H](CC(C)C)NC(=O)[C@H](CC(N)=O)NC(=O)[C@@H]4CCCN4C(=O)[C@H](CCCNC(=N)N)NC(=O)[C@H](CSSC[C@H](NC(=O)[C@@H](N)CC(=O)O)C(=O)N[C@@H](CC(C)C)C(=O)NCC(=O)N[C@@H](Cc4ccccc4)C(=O)N[C@@H](CCSC)C(=O)N[C@@H](CCCNC(=N)N)C(=O)N[C@@H](CCCCN)C(=O)N2)NC(=O)[C@H](CSSC[C@@H](C(=O)N[C@@H](CCCCN)C(=O)N[C@@H](Cc2ccc(I)cc2)C(=O)N[C@H](C(=O)N[C@@H](Cc2ccccc2)C(N)=O)C(C)C)NC(=O)[C@H](Cc2c[nH]c4ccccc24)NC(=O)[C@H](CCCCN)NC(=O)[C@H](Cc2c[nH]cn2)NC(=O)[C@H]([C@@H](C)O)NC(=O)[C@H](CCCNC(=N)N)NC(=O)[C@H](CO)NC3=O)NC(=O)[C@H](CCCCN)NC(=O)[C@H](CC(=O)O)NC(=O)[C@H](CC(N)=O)NC(=O)[C@H](CC(=O)O)NC(=O)[C@@H]2CCCN2C1=O [compound 381] (H-DCLGFMRKCIPDNDKCCRPNLVCSRTHKWCK[Phe(4-I)]VF-NH2; disulfide 2-17, 9-23, 16-30) | 0.03 | 4.44 | 0.01 |
| CC[C@H](C)[C@@H]1NC(=O)[C@@H]2CSSC[C@@H]3NC(=O)[C@H](C(C)C)NC(=O)[C@H](CC(C)C)NC(=O)[C@H](CC(N)=O)NC(=O)[C@@H]4CCCN4C(=O)[C@H](CCCNC(=N)N)NC(=O)[C@H](CSSC[C@H](NC(=O)[C@@H](N)CC(=O)O)C(=O)N[C@@H](CC(C)C)C(=O)NCC(=O)N[C@@H](Cc4ccccc4)C(=O)N[C@@H](CCSC)C(=O)N[C@@H](CCCNC(=N)N)C(=O)N[C@@H](CCCCN)C(=O)N2)NC(=O)[C@H](CSSC[C@@H](C(=O)N[C@@H](CCCCN)C(=O)N[C@@H](CO)C(=O)N[C@H](C(=O)N[C@@H](Cc2ccccc2)C(N)=O)C(C)C)NC(=O)[C@H](Cc2c[nH]c4ccccc24)NC(=O)[C@H](CCCCN)NC(=O)[C@H](Cc2c[nH]cn2)NC(=O)[C@H]([C@@H](C)O)NC(=O)[C@H](CCCNC(=N)N)NC(=O)[C@H](CO)NC3=O)NC(=O)[C@H](CCCCN)NC(=O)[C@H](CC(=O)O)NC(=O)[C@H](CC(N)=O)NC(=O)[C@H](CC(=O)O)NC(=O)[C@@H]2CCCN2C1=O [compound 382] (H-DCLGFMRKCIPDNDKCCRPNLVCSRTHKWCKSVF-NH2; disulfide 2-17, 9-23, 16-30) | 3.95 | > 5 | 1.47 |
